Structures can show the parent of a compound that is named as a salt.
Columns and labels:
Alzheimer's Aβ (1-40) = target: T1, Alzheimer's Aβ (1-40) (Homo sapiens, UniProt P05067); experiment: Thioflavin T fluorometry assay of Aβ (1-40) amyloid fibril formation over 1 week; assay type: biochemical; conditions: 1 hour to 1 week, 25 μM Aβ (1-40)
T1 construct: aggregates to fibrils, Thioflavin T fluorometry
Description: A previously described method of measuring amyloid fibril formation utilizing Thioflavin T fluorometry (H Naiki et al, Lab. Invest. 65:104-110, 1991; H Levine III, Protein Sci. 2:404-410, 1993; H Levine III, Amyloid: Int. J. Exp. Clin. Invest. 2:1-6, 1995; H Naiki and K. Nakakuki, Lab. Invest. 74:374-383,1996) was employed initially to identify potential therapeutic compounds capable of inhibiting Alzheimer's Aβ amyloid fibril formation. Using this sensitive assay, any decreases or increases in fluorescence was previously shown to correlate with a decrease or increase in the amount of amyloid fibrils (H Naiki et al, Lab. Invest. 65:104-110, 1991; H Levine III, Protein Sci. 2:404-410, 1993; H Levine III, Amyloid: Int. J. Exp. Clin. Invest. 2:1-6, 1995; H Naiki and K. Nakakuki, Lab. Invest. 74:374-383, 1996), allowing one to determine the identification and extent of potential inhibitors and/or enhancers of amyloid fibril formation.
In one study, the effects of various compounds on Alzheimer's Aβ (1-40) fibril formation was assessed by Thioflavin T fluorometry. Thioflavin T is known to bind to fibrillar amyloid proteins, and an increase in fluorescence correlates with an increase in amyloid fibril formation, whereas a decrease in fluorescence correlates with a decrease in amyloid fibril formation. The Alzheimer's Aβ protein (1-40) when incubated at 37° C. tends to spontaneously form amyloid fibrils which increase in quantity over time. […]
To assess the effects of each compound on Aβ (1-40) fibril formation, 50 μl aliquots were taken from each tube for analysis at 1 hr, 1 day, 3 days, and 1 week. […] Fluorescence emission at 482 nm was measured on a Turner instrument-model 450 fluorometer at an excitation wavelength of 450 nm. For each determination,the fluorometer was calibrated by zeroing in the presence of the Thioflavin T reagent alone, and by setting the 50 ng/ml riboflavin (Sigma Chemical Co., St. Louis, Mo.) in the Thioflavin T reagent to 1800 fluorescence units. […]

Aβ (1-40) = experiment: Solid phase binding assay of Aβ--Aβ interactions (amyloid fibril growth); conditions: FIG. 3; 1.25 mM of test compounds
Description: In Alzheimer's disease and other amyloidoses, amyloid fibril growth is believed to involve amyloid protein self-interactions (ie. Aβ--Aβ interactions). Any potential effective therapeutic agent for amyloid deposition, accumulation and/or persistence should also be capable of causing an inhibition of amyloid protein self-interactions. This is important for preventing any new amyloid fibril formation when treating Azheimer's disease patients at early stages of the disease. ELISA methodologies (i.e. solid phase binding assays) were therefore used to identify compounds which were capable of inhibiting Aβ--Aβ interactions (i.e. Alzheimer's amyloid fibril growth).
Aβ (1-40) was first labelled with biotin according to the following protocol. 1 mg of Aβ (1-40) (Bachem Inc., Torrance, Calif., USA; Lot #WL934) was dissolved in 200 μl of PBS (pH 8.0) and incubated for 1 week at 37° C. […] The amount of biotin incorporated was then determined using the HABA (2-(4'-hydroxyazo-benzene)benzoic acid) method (according to the manufacturer's protocol; Pierce).
2 μg of unlabelled Aβ in 40 μl of Tris-buffered saline containing 100 mM Tris-HCl, 50 mM NaCl, 3 mM NaN3, pH 7.0 (TBS) was allowed to bind overnight at 4° C. to microtiter wells (Nunc plates, Maxisorb). […] The reaction was stopped with 50 μl of 4N H2 SO4 and read on a Model 450 microplate reader (Biorad, Hercules, Calif., USA) at 490 nm. […]

[1] = tested on: Alzheimer's disease patients; conditions: literature; cited from earlier work
[2] = Example 1, FIG. 1, 1.25 mM test compound (PTI-00700 at 1:227 dilution)

T1 sequence (P05067 672-711): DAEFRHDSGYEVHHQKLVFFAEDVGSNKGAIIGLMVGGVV

SMILES	effect on Aβ (1-40) amyloid fibril formation (Alzheimer's Aβ (1-40); [2])	effect on amyloid fibril growth / Aβ--Aβ interactions (Aβ (1-40))	cognitive improvement in Alzheimer's disease patients [1]	further results
N[C@H]1C(O)O[C@H](CO)[C@@H](O)[C@@H]1O (some centres unmarked) [PTI-00712, glucosamine]				effect on Aβ (1-40) amyloid fibril formation (Alzheimer's Aβ (1-40); Example 2, FIG. 2, 1.25 mM test compound): no inhibitory effect
N[C@H]1C(O)O[C@H](CO)[C@@H](O)[C@@H]1O (some centres unmarked) [PTI-00800, glucosamine]	did not significantly inhibit	no inhibitory effects		
N[C@H]1C(O)O[C@H](CO)[C@@H](O)[C@@H]1O (some centres unmarked) [PTI-00900, glucosamine]	did not significantly inhibit	no inhibitory effects		
Nc1c2c(nc3ccccc13)CCCC2 [Tacrine hydrochloride]			limited success	side effects [1]: liver toxicity
COc1cc2c(cc1OC)C(=O)C(CC1CCN(Cc3ccccc3)CC1)C2 (centres unmarked) [donepezil]			slight cognitive improvement	

From patent publication US6264994A, “Compositions for treating alzheimer's disease and other amyloidoses” (priority 1998, dated 2001)
